We go through two molecules from publication PMC10999986, “Substrate specificity of a ketosynthase domain involved in bacillaene biosynthesis” (Beilstein Journal of Organic Chemistry, 2024).

Assay [1] deals with T1, BaeJ-KS2 (Bacillus amyloliquefaciens, UniProt Q1RS73).
T1 construct: excised second ketosynthase domain (KS2, module 4) of BaeJ, His-tagged, heterologously expressed, Ni-NTA purified
In words: […] NMR of protein after incubation and ultrafiltration buffer exchange; proteinase K digest. As to conditions: 25 °C, 30 min; labelled compound; covalent binding to active-site Cys proposed.

The target in assay [2] is T1, BaeJ-KS2. The assay can be described thus: […] NMR of protein after incubation and ultrafiltration buffer exchange. It counts as binding. The following applies: 25 °C, 30 min; labelled compound; active-site Cys replaced.

T1 sequence (Q1RS73 entry or part of it): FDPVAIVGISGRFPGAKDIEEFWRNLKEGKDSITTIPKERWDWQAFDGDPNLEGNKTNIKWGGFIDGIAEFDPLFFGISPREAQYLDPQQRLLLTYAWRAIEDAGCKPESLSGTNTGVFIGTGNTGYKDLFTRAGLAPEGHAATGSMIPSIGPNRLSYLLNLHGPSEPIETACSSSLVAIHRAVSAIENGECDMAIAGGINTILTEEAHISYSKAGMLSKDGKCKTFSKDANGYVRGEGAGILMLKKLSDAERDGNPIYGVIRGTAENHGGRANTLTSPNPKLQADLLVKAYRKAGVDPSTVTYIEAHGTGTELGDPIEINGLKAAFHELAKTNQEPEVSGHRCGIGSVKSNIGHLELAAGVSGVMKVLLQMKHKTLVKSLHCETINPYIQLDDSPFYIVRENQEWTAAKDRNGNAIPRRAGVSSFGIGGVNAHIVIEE

For `CC(=O)NCCSC(=O)CCCNC(=O)[C@H](O)CC(C)C` [(R)-11], the “13C NMR of protein after incubation and ultrafiltration buffer exchange; protein” value at BaeJ-KS2 [1] is reported as “This observation supports binding of both substrate surrogates to BaeJ-KS2”. In addition, on BaeJ-KS2 [2], the “thioester carbonyl 13C NMR signal” value is “(R)-11 is not bound to BaeJ-KS2-C222A after incubation and buffer exchange”.
Turning to `CC(=O)NCCSC(=O)CCCNC(=O)[C@@H](O)CC(C)C` [(S)-11], on BaeJ-KS2 [1], the “13C NMR of protein after incubation and ultrafiltration buffer exchange; protein” value was “for both samples obtained from the incubations with (S)-11 and (R)-11 signals were detected”. Further, the “thioester carbonyl 13C NMR signal” value on BaeJ-KS2 [2] is given as “No signal corresponding to a thioester carbonyl group was detected in the protein preparations”.
